# The supplement of paper PMC7108870
# Tests used:
# HEK293sieSTAT3(Y640F) [1] = assay: drug sensitivity score (DSS), cytotoxicity CellTox Green (DSS (dimensionless)); higher = more cytotoxic; extreme values may be limits of the assay; settings: 72 h; STAT3 variant: Y640F (constitutively active)
# Method in brief: (§1)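 HEK293 cells carrying a STAT3-dependent luciferase reporter and overexpressing wild-type or mutant STAT3 (20 μl at 100,000 cells/ml) were added to compounds acoustically pre-plated at 5 concentrations in 10-fold dilutions in 384-well plates. After 72 hours at 37°C and 5% CO2, CellTox Green fluorescence (485/520 nm) and then CellTiter-Glo luminescence were read on a PHERAstar FS. Values were normalised to negative and positive control wells, and a drug sensitivity score based on dose-response curve area was computed in Breeze. Each value comes from one representative of two experiments.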
# HEK293sieSTAT3(wt) [2] = assay: as above; settings: 72 h; STAT3 variant: wild type
# Method in brief: as §1
# HEK293sieSTAT3(Y640F) [3] = assay: drug sensitivity score (DSS), viability CellTiter-Glo (DSS (dimensionless)); higher = more growth inhibition; extreme values may be limits of the assay; settings: 72 h; STAT3 variant: Y640F (constitutively active)
# Method in brief: as §1
# HEK293sieSTAT3(wt) [4] = assay: as above; settings: 72 h; STAT3 variant: wild type
# Method in brief: as §1
SMILES,drug sensitivity score (HEK293sieSTAT3(Y640F) [1]),drug sensitivity score (HEK293sieSTAT3(wt) [2]),drug sensitivity score (HEK293sieSTAT3(Y640F) [3]),drug sensitivity score (HEK293sieSTAT3(wt) [4])
Cn1nnc2c(C(N)=O)ncn2c1=O [Temozolomide] (top concentration tested 100000 nM),0.32,0,0,0.36
CO[C@H]1C[C@@H]2CC[C@@H](C)[C@@](O)(O2)C(=O)C(=O)N2CCCC[C@H]2C(=O)O[C@H]([C@H](C)C[C@@H]2CC[C@@H](OC(=O)C(C)(CO)CO)[C@H](OC)C2)CC(=O)[C@H](C)/C=C(\C)[C@@H](O)[C@@H](OC)C(=O)[C@H](C)C[C@H](C)/C=C/C=C/C=C/1C [Temsirolimus] (top concentration tested 100 nM),0,0,11.2,17.6
COc1cc([C@@H]2c3cc4c(cc3[C@@H](O[C@@H]3O[C@@H]5CO[C@@H](c6cccs6)O[C@H]5[C@H](O)[C@H]3O)[C@H]3COC(=O)[C@H]23)OCO4)cc(OC)c1O [Teniposide] (top concentration tested 10000 nM),2.03,8.89,29,29.6
O=C1CCC(N2C(=O)c3ccccc3C2=O)C(=O)N1 (stereo unspecified) [Thalidomide] (top concentration tested 10000 nM),0,0,4.79,2.38
S=P(N1CC1)(N1CC1)N1CC1 [Thio-TEPA] (top concentration tested 50000 nM),0,0,0.14,0.48
Nc1nc2[nH]cnc2c(=S)[nH]1 [Thioguanine] (top concentration tested 10000 nM),0,1.43,9.91,9.24
O=c1sn(-c2cccc3ccccc23)c(=O)n1Cc1ccccc1 [Tideglusib] (top concentration tested 3000 nM),0,0,2.47,0.7
Cn1cncc1[C@@](N)(c1ccc(Cl)cc1)c1ccc2c(c1)c(-c1cccc(Cl)c1)cc(=O)n2C [Tipifarnib] (top concentration tested 10000 nM),1.51,6.86,12.3,14.8
O=C1NC(=O)[C@@H](c2cn3c4c(cccc24)CCC3)[C@@H]1c1c[nH]c2ccccc12 [Tivantinib] (top concentration tested 1000 nM),0,0.63,2.71,2.4
COc1cc2nccc(Oc3ccc(NC(=O)Nc4cc(C)on4)c(Cl)c3)c2cc1OC [Tivozanib] (top concentration tested 10000 nM),0,1.14,4.07,4.13
C[C@@H]1CCN(C(=O)CC#N)C[C@@H]1N(C)c1ncnc2[nH]ccc12 [Tofacitinib] (top concentration tested 5000 nM),0,0,0.07,0
CC[C@@]1(O)C(=O)OCc2c1cc1n(c2=O)Cc2cc3c(CN(C)C)c(O)ccc3nc2-1 [Topotecan] (top concentration tested 10000 nM),8.8,13,28.1,27
CN(C)CCOc1ccc(/C(=C(/CCCl)c2ccccc2)c2ccccc2)cc1 [Toremifene] (top concentration tested 10000 nM),2.32,6.99,2.66,5.41
CC(C)C[C@@H](C(=O)N[C@H](C(=O)OC1CCCC1)c1ccccc1)[C@H](O)C(=O)NO [Tosedostat] (top concentration tested 10000 nM),1.4,8.66,3.46,6.78
Cc1cc(Nc2cc(N3CCN(C)CC3)nc(Sc3ccc(NC(=O)C4CC4)cc3)n2)n[nH]1 [Tozasertib] (top concentration tested 10000 nM),0,0.22,10.3,12.1
CC(=O)Nc1cccc(-n2c(=O)n(C3CC3)c(=O)c3c(Nc4ccc(I)cc4F)n(C)c(=O)c(C)c32)c1 [Trametinib] (top concentration tested 250 nM),1.69,0,0,0
CC1=C(/C=C/C(C)=C/C=C/C(C)=C/C(=O)O)C(C)(C)CCC1 [Tretinoin] (top concentration tested 10000 nM),0,0,0,0
NC(=S)N/N=C/c1ncccc1N [Triapine] (top concentration tested 10000 nM),1.5,0.84,14.7,9.19
O=C(CCCCCCC(=O)Nc1ccc([C@H]2O[C@@H](CSc3nc(-c4ccccc4)c(-c4ccccc4)o3)C[C@@H](c3ccc(CO)cc3)O2)cc1)NO [Tubacin] (top concentration tested 10000 nM),0.48,2.57,4.63,5.53
CN1CCc2c(c3ccccc3n2Cc2ccc(C(=O)NO)cc2)C1 [Tubastatin A] (top concentration tested 10000 nM),5.37,7.38,8.41,8.98
CN[C@@H]1C[C@H]2O[C@@](C)([C@@H]1OC)n1c3ccccc3c3c4c(c5c6ccccc6n2c5c31)C(=O)N[C@H]4O [UCN-01] (top concentration tested 10000 nM),3.93,9.92,28.3,29.5
COC(=O)c1ccc2c(c1)[nH]c1ncnc(NCCCN3CCCCC3)c12 [UM729] (top concentration tested 10000 nM),0.81,4.84,8.45,6.2

SMILES,drug sensitivity score (HEK293sieSTAT3(Y640F) [1]),drug sensitivity score (HEK293sieSTAT3(wt) [2]),drug sensitivity score (HEK293sieSTAT3(Y640F) [3]),drug sensitivity score (HEK293sieSTAT3(wt) [4])
O=C(O)CSc1cc(NS(=O)(=O)c2ccc(Br)cc2)c2ccccc2c1O [UMI-77] (top concentration tested 100000 nM),5.23,5.12,10,13.1
COc1cc2c(NC3CCN(C(C)C)CC3)nc(C3CCCCC3)nc2cc1OCCCN1CCCC1 [UNC0638] (top concentration tested 10000 nM),6.64,7.19,5.62,7.26
COc1cc2c(NC3CCN(C(C)C)CC3)nc(N3CCC(F)(F)CC3)nc2cc1OCCCN1CCCC1 [UNC0642] (top concentration tested 10000 nM),7.41,7.38,9.29,7.97
O=C(c1ccc(C(=O)N2CCC(N3CCCC3)CC2)c(Nc2ccccc2)c1)N1CCC(N2CCCC2)CC1 [UNC1215] (top concentration tested 30000 nM),0,0,0.33,0.89
CCCCNc1ncc(C(=O)NCc2ccc(-n3ccnc3)cc2)c(NC2CCC(O)CC2)n1 (stereo unspecified) [UNC2881] (top concentration tested 2500 nM),0,3.59,5.94,4.52
NC(=O)c1cccc(-c2cccc(OC(=O)NC3CCCCC3)c2)c1 [URB597] (top concentration tested 1000 nM),0,0,0.03,0.37
CC(C)Nc1cc(-c2c[nH]c(C(=O)N[C@H](CO)c3cccc(Cl)c3)c2)c(Cl)cn1 [Ulixertinib] (top concentration tested 10000 nM),0,0,4.62,3.95
Cn1ncc(Cl)c1-c1cc(C(=O)N[C@H](CN)Cc2ccc(F)c(F)c2)oc1Cl [Uprosertib] (top concentration tested 10000 nM),0,0,12.7,15.3
Oc1ncc(N(CCCl)CCCl)c(O)n1 [Uramustine] (top concentration tested 10000 nM),0,0,0.79,0.26
CS(=O)(=O)c1ccc(-c2cnc(N)c(C(=O)Nc3ccccc3)n2)cc1 [VE-821] (top concentration tested 10000 nM),0,0,2.27,2.94
O=C(O)CC1CC(c2ccccc2)=NO1 (stereo unspecified) [VGX-1027] (top concentration tested 10000 nM),0,0,3.98,1.07
CNC(=O)c1ccccc1Nc1cc(Nc2ccc(N3CCOCC3)cc2OC)ncc1C(F)(F)F [VS-4718] (top concentration tested 10000 nM),0,0.44,8.98,7.27
O=c1ncn2nc(Sc3ccc(F)cc3F)ccc2c1-c1c(Cl)cccc1Cl [VX 745] (top concentration tested 10000 nM),0,0,4.64,2.43
CCCC(CCC)C(=O)O [Valproic acid] (top concentration tested 1000000 nM),0,0,3.24,3.15
CCCCC(=O)OCC(=O)[C@]1(O)Cc2c(O)c3c(c(O)c2[C@@H](O[C@H]2C[C@H](NC(=O)C(F)(F)F)[C@H](O)[C@H](C)O2)C1)C(=O)c1c(OC)cccc1C3=O [Valrubicin] (top concentration tested 5000 nM),0,0.89,21.9,22.8
COc1cc2/c(=N/c3ccc(Br)cc3F)nc[nH]c2cc1OCC1CCN(C)CC1 [Vandetanib] (top concentration tested 1000 nM),0,0,2.31,4.73
CCc1c(C(=O)C(N)=O)c2c(OCC(=O)O)cccc2n1Cc1ccccc1 [Varespladib] (top concentration tested 10000 nM),0,0,3.29,0
C[C@@H]1COC(Nc2ccc3ncnc(Nc4ccc(OCc5nccs5)c(Cl)c4)c3c2)=N1 [Varlitinib] (top concentration tested 10000 nM),0,0,0.4,0
Clc1ccc(Nc2nnc(Cc3ccncc3)c3ccccc23)cc1 [Vatalanib] (top concentration tested 10000 nM),0,0,0.9,1.89
C[C@]1(c2nc3c(C(N)=O)cccc3[nH]2)CCCN1 [Veliparib] (top concentration tested 10000 nM),0,0.43,0,2.28
CCCS(=O)(=O)Nc1ccc(F)c(C(=O)c2c[nH]c3ncc(-c4ccc(Cl)cc4)cc23)c1F [Vemurafenib] (top concentration tested 10000 nM),3.47,4.84,0,1.57
CC1(C)CCC(CN2CCN(c3ccc(C(=O)NS(=O)(=O)c4ccc(NCC5CCOCC5)c([N+](=O)[O-])c4)c(Oc4cnc5[nH]ccc5c4)c3)CC2)=C(c2ccc(Cl)cc2)C1 [Venetoclax] (top concentration tested 1000 nM),0,0,0,0
